From patent US20070287848A1, “Silicon Compound Containi-Electron Conjugated-System Molecule and Process for Producing the Same” (priority 2004, published 2007)
Blank lines part the entries; values can stand above or below the compound they belong to.

Key:
Solubility in THF = type: physicochemical; conditions: in 1 ml of THF
Solubility in toluene = type: physicochemical; conditions: in 1 ml of toluene; for solubility relative to that of Th4-SiCl3: ratio to Th4-SiCl3

Structure (SMILES): CCCCCCCCCCCCCCCCCCc1ccc(-c2ccc(-c3ccc([Si](Cl)(Cl)Cl)cc3)cc2)cc1 [C18-P3-SiCl3]
solubility relative to that of P3-SiCl3 (Solubility in THF; ratio to P3-SiCl3): about 2.8 times

Structure (SMILES): CCCCCCCCCCCCCCCCCCc1ccc(-c2ccc(-c3ccc(-c4ccc([Si](OCC)(OCC)OCC)s4)s3)s2)s1 [C18-Th4-Si(OC2H5)3]
solubility relative to that of Th4-SiCl3 (Solubility in toluene): about 10 times

Structure (SMILES): CCCCCCCCCCCCCCCCCCc1ccc(-c2ccc(-c3ccc(-c4ccc([Si](OC)(OC)OC)s4)s3)s2)s1 [C18-Th4-Si(OCH3)3]
solubility relative to that of Th4-SiCl3 (Solubility in toluene): about 9.5 times

solubility (Solubility in THF): about 2.0 mg/ml
Structure (SMILES): Cl[Si](Cl)(Cl)c1ccc(-c2ccc(-c3ccccc3)cc2)cc1 [P3-SiCl3, reference compound]

solubility (Solubility in toluene): about 1.0 mg/ml
Structure (SMILES): Cl[Si](Cl)(Cl)c1ccc(-c2ccc(-c3ccc(-c4cccs4)s3)s2)s1 [Th4-SiCl3, reference compound]
